Test results taken from PMC3648489, “The sodium glucose cotransporter 2 inhibitor empagliflozin does not prolong QT interval in a thorough QT (TQT) study” (Cardiovascular Diabetology, 2013).
Values joined by “and” are separate entries in the source; they are usually repeats but may differ in a detail not shown here. Equal entries are not always repeated. Where two headings read alike, the source gives them in different places.

Tests used:
healthy volunteers = assay: Thorough QT study: triplicate 12-lead ECG, QTcN and heart rate change from baseline; format: in vivo, human; conditions: for Difference from placebo in mean QTcN change from baseline, mean (SE): 1−4 hours after dosing; for QTcN mean change from baseline: ΔQTcN, adjusted mean (SE) / Difference from placebo: ΔΔHR, adjusted mean (SE) / HR mean change from baseline: ΔHR, adjusted mean (SE): 1-4 hours after administration; for Placebo-corrected MCfB in QTcN from all ECGs (90% CI): 0.5-24 hours after dosing; for Volunteers exceeding the QTcN threshold of 450 ms: 0.5-24 hours post-dose; for Difference from placebo: ΔΔQTcN (placebo-corrected MCfB in QTcN), adjusted mean: 1-4 hours after dosing, both placebo periods; for Maximum upper CI of placebo-corrected QTcN change from baseline over the time course: 90% CI; for Range of adjusted means of placebo-corrected QTcN change from baseline over the time course: time points 0.5-24 hours
Experimental: This thorough QT study (TQT) was a randomised, double-blind (moxifloxacin open), placebo-controlled crossover trial which included the following treatments: 25 mg and 200 mg empagliflozin (Boehringer Ingelheim Pharma GmbH & Co. KG); 400 mg open-label moxifloxacin (Avalox®; Bayer Vital, Leverkusen, Germany); and two placebo periods, with a washout of at least seven days between treatments. Trial medication was administered in the morning after an overnight fast.
ECG recordings were made at screening and at the end of the study as part of the safety evaluation. For the QTc evaluation, ECG recordings were made on study drug administration days (as ECG profiles) at 60, 50 and 40 minutes pre-dose (to derive the period-specific baseline), and at 0.5, 1, 1.5, 2, 2.5, 3, 4, 6, 8, 12 and 24 hours post-dose (last three time points omitted for moxifloxacin treatment). At each time point, triplicate standard 12-lead ECGs (I, II, III, aVR, aVL, aVF, V1–V6) of 10 seconds’ duration each were recorded after at least 5 minutes’ rest in the supine position using CardioSoft ECG recording machines (GE Healthcare, Freiburg, Germany). ECGs were sent to a central laboratory for evaluation of PR, QRS, RR and QT intervals. The semi-automatic approach used for determination of the fiducial points provided an automatic pre-assessment using a computer algorithm, which was reviewed by a specialist and adjusted if necessary. This review was performed blinded with regard to treatment and time point.
Data from four cardiac cycles per ECG were averaged. A population heart rate-corrected QT interval (QTcN) was derived by determining the exponent δ of the relationship: QT ~ (1000 / RR)^δ (where δ is the regression effect of the covariate) using a linear mixed model on log-transformed RR and QT data (measured in ms). Data from triplicate ECGs were then averaged for each time point.
The primary endpoint was the mean change from baseline (MCfB) in QTcN which was the mean QTcN derived from ECGs obtained 1–4 hours post-dose minus mean QTcN from baseline ECGs obtained pre-dose at each visit. Plasma concentrations of both empagliflozin and moxifloxacin were expected to reach peak levels within this three-hour window, ensuring the most relevant levels of drug exposure.
Secondary endpoints were the changes from period baseline in QTcN at any time point between 0.5–24 hours after dosing. In addition, the MCfB 2–4 hours after dosing (for assessment of the moxifloxacin effect), and the MCfB of all ECGs taken 0.5–24 hours after dosing were evaluated. Safety and tolerability were evaluated based on physical examination, vital signs, ECG, clinical laboratory tests, adverse events (AEs) and the physician’s assessment of global tolerability.
Briefly, the primary analysis compared changes in the primary endpoint (QTcN MCfB over 1–4 hours) using an analysis of covariance (ANCOVA) model with ‘sequence’, ‘period’ and ‘treatment’ as fixed effects, ‘subjects nested within sequences’ as a random effect, and ‘pre-dose baseline’ as a covariate. Analyses were performed using pair-wise comparisons of the trial treatments. The saturated repeated measurements crossover (RMC) model with unstructured covariance using pair-wise comparisons of the trial treatments was used to evaluate changes from baseline in QTcN at any time point between 0.5–24 hours after dosing. […] For descriptive statistics and the exposure-response analysis, the changes from baseline in QTcN of the placebo periods were averaged prior to the derivation of the placebo corrected MCfB.
In agreement with ICH E14, all tests were performed one-sided against the threshold level of regulatory concern of 10 ms with type-I error of α=5%, which is statistically equivalent to the calculation of two-sided 90% confidence intervals for the adjusted mean estimates. […]

[1] = test system: guinea pig papillary muscle; parameters: method as in unpublished data; conditions: empagliflozin doses of ≥10 μM (so in the source); ref unpublished data; cited from earlier work
[2] = Earlier single-dose pharmacokinetic study of empagliflozin in healthy volunteers; format: in vivo, human; conditions: 200 mg versus 25 mg; based on ref 10
[3] = Empagliflozin plasma pharmacokinetics (HPLC-MS/MS) in the TQT study; format: in vivo, human; conditions: for Tmax / AUC(0-t) / Cmax: human; for Tmax: po, read-out: tmax, median; for AUC(0-t): read-out: AUC0−tz, gMean; for Cmax: read-out: Cmax, gMean
Experimental: Blood samples for pharmacokinetic measurements were taken one hour before drug administration and at the same post-dose time points as ECG measurements, except for the moxifloxacin periods. Empagliflozin concentrations in plasma were determined using a validated high performance liquid chromatography, tandem mass spectrometry (HPLC-MS/MS) assay with a lower limit of quantification of 1.11 nmol/L (0.5 ng/mL). Results were calculated using peak area ratios and calibration curves were created using weighted (1/x2) quadratic regression. […] Pharmacokinetic parameters included Cmax, tmax which were determined directly from the plasma concentration-time profiles of each, and area under the plasma concentration curve from zero to the last quantifiable time point (AUC0–tz), calculated using the linear trapezoidal method for ascending concentrations and the log trapezoidal method for descending concentrations. Pharmacokinetic parameters were determined using WinNonlin™ software v5.2 (Pharsight Corporation, Mountain View, California, USA).

[4] = test system: human ether-a-go-go related gene (hERG)-mediated potassium current; parameters: method as in unpublished data; conditions: transfected HEK293 cells; ref unpublished data; cited from earlier work
[5] = parameters: method as in PMID 27121669; conditions: cited from earlier work; for Cmax: read-out: Expected mean Cmax
[6] = empagliflozin 25 mg single oral dose, plasma, n=28
[7] = empagliflozin 200 mg single oral dose, plasma, n=30
[8] = single oral dose of 25 mg, healthy volunteers

OC[C@H]1O[C@@H](c2ccc(Cl)c(Cc3ccc(O[C@H]4CCOC4)cc3)c2)[C@H](O)[C@@H](O)[C@@H]1O [Empagliflozin, empagliflozin]
Difference from placebo in mean QTcN change from baseline, mean (SE) (healthy volunteers; 25 mg empagliflozin, primary analysis model with placebo period 1 only): 0.2 (0.9) ms
Difference from placebo in mean QTcN change from baseline, mean (SE) (healthy volunteers; 25 mg empagliflozin, primary analysis model with placebo period 2 only): 0.6 (1.0) ms
Difference from placebo in mean QTcN change from baseline, mean (SE) (healthy volunteers; 200 mg empagliflozin, primary analysis model with placebo period 1 only): -0.5 (0.8) ms
Difference from placebo in mean QTcN change from baseline, mean (SE) (healthy volunteers; 200 mg empagliflozin, primary analysis model with placebo period 2 only): 0.1 (0.8) ms
Slope estimates of exposure-response relationship between empagliflozin and heart rate (healthy volunteers; both doses (25 mg and 200 mg), CIs include zero): slope estimates close to zero
Range of adjusted means of placebo-corrected heart rate change from baseline over the time course (healthy volunteers; both empagliflozin doses (25 mg and 200 mg)): -1.2 to 1.5 bpm
90% CIs of placebo-corrected heart rate change from baseline over the time course (healthy volunteers; both empagliflozin doses (25 mg and 200 mg), all CIs within): -3 to 3 bpm
Intercept of exposure-response analysis of placebo-corrected QTcN change from baseline (healthy volunteers; empagliflozin 25 mg): 0.35 ms
Slope (estimate) of exposure-response analysis of placebo-corrected QTcN change from baseline (healthy volunteers; empagliflozin 25 mg): -0.0007 ms/(nmol/L)
QTcN mean change from baseline: ΔQTcN, adjusted mean (SE) (healthy volunteers; empagliflozin 25 mg single oral dose, n=28): 4.3 (1.1) ms
Placebo-corrected MCfB in QTcN from all ECGs (90% CI) (healthy volunteers; empagliflozin 25 mg): 0.7 (90% CI: -0.4, 1.7) ms
Volunteers exceeding the QTcN threshold of 450 ms (healthy volunteers; empagliflozin 25 mg, one volunteer): 3.6%
Difference from placebo: ΔΔHR, adjusted mean (SE) (healthy volunteers; empagliflozin 25 mg): -0.9 (0.5) bpm
HR mean change from baseline: ΔHR, adjusted mean (SE) (healthy volunteers; empagliflozin 25 mg): -1.2 (0.5) bpm
Difference from placebo: ΔΔQTcN (placebo-corrected MCfB in QTcN), adjusted mean (healthy volunteers; empagliflozin 25 mg): 0.6 (0.8) ms
Difference from placebo: ΔΔQTcN (placebo-corrected MCfB in QTcN), adjusted mean (healthy volunteers; empagliflozin 25 mg, listed as empagliflozin): 0.6 (90% CI: -0.7, 1.9) ms and 0.6 (90% confidence interval [CI]: -0.7, 1.9) ms
Maximum upper CI of placebo-corrected QTcN change from baseline over the time course (healthy volunteers; empagliflozin 25 mg): 4.7 ms
Predicted value of placebo-corrected change from baseline QTcN at gMean of Cmax, estimate (healthy volunteers; empagliflozin 25 mg, at gMean Cmax 768 nmol/L): -0.20 ms
Range of adjusted means of placebo-corrected QTcN change from baseline over the time course (healthy volunteers; empagliflozin 25 mg): -2.7 to 2.2 ms
Intercept of exposure-response analysis of placebo-corrected QTcN change from baseline (healthy volunteers; empagliflozin 200 mg): -0.60 ms
Slope (estimate) of exposure-response analysis of placebo-corrected QTcN change from baseline (healthy volunteers; empagliflozin 200 mg): -0.0000 ms/(nmol/L)
QTcN mean change from baseline: ΔQTcN, adjusted mean (SE) (healthy volunteers; empagliflozin 200 mg single oral dose, n=30): 3.4 (0.9) ms
Placebo-corrected MCfB in QTcN from all ECGs (90% CI) (healthy volunteers; empagliflozin 200 mg): -0.2 (-1.2, 0.9) ms
Volunteers exceeding the QTcN threshold of 450 ms (healthy volunteers; empagliflozin 200 mg, two volunteers): 6.7%
Difference from placebo: ΔΔHR, adjusted mean (SE) (healthy volunteers; empagliflozin 200 mg): 0.0 (0.5) bpm
HR mean change from baseline: ΔHR, adjusted mean (SE) (healthy volunteers; empagliflozin 200 mg): -0.3 (0.5) bpm
Difference from placebo: ΔΔQTcN (placebo-corrected MCfB in QTcN), adjusted mean (healthy volunteers; empagliflozin 200 mg): -0.2 (0.7) ms
Difference from placebo: ΔΔQTcN (placebo-corrected MCfB in QTcN), adjusted mean (healthy volunteers; empagliflozin 200 mg, listed as empagliflozin): -0.2 (-1.4, 0.9) ms
Maximum upper CI of placebo-corrected QTcN change from baseline over the time course (healthy volunteers; empagliflozin 200 mg): 3.5 ms
Predicted value of placebo-corrected change from baseline QTcN at gMean of Cmax, estimate (healthy volunteers; empagliflozin 200 mg, at gMean Cmax 4860 nmol/L): -0.64 ms
Range of adjusted means of placebo-corrected QTcN change from baseline over the time course (healthy volunteers; empagliflozin 200 mg): -1.8 to 1.6 ms
Effect on action potential configuration or contractile function [1]: no effect on action potentials
Cmax ratio supratherapeutic dose versus therapeutic dose [2]: ~ 7 fold
Dose proportionality of empagliflozin exposure ([3]; 25 mg and 200 mg single doses): increased approximately dose proportionally
tmax, median [3, 6]: 1.5 h
Tmax ([3]; plasma, 25 mg, empagliflozin 25 mg single oral dose, plasma, n=28): ~1.5 h
Tmax ([3]; plasma, 200 mg, empagliflozin 200 mg single oral dose, plasma, n=30): ~1.8 h
AUC(0-t) [3, 6]: 4.86 µM·h
Cmax [3, 6]: 0.768 µM
AUC(0-t) [3, 7]: 36.4 µM·h
Cmax [3, 7]: 4.86 µM
Interaction with hERG-mediated potassium current [4]: No relevant interactions
Effect of food on drug exposure [5]: no clinically relevant effects of food on drug exposure
Terminal elimination half-life ([5]; doses ≥10 mg): 10 to 13 h
Time to peak levels ([5]; single doses of empagliflozin (≥800 mg as printed)): 1.5 to 2.5 h
Mean tmax [5, 8]: 2.2 h
Cmax [5, 8]: 0.505 µM
Cmax ([5]; single oral dose of 200 mg, healthy volunteers): 3.49 µM
